From patent publication US4146610A, “Antibiotics MM13902” (Beecham Group Limited, priority 1974, dated 1979)
Counter-ions that a name gives are not always drawn.

Tests used:
Stability = format: physicochemical; conditions: unsalted acid form
Klebsiella aerogenes = test: Antibiotic activity in arbitrary units; format: cell-based
Procedure: The material produced above was arbitrarily assigned an activity of 340 l/ml. Assays were determined as described in Description 3.

urease = test: Enzyme inhibition (selectivity); format: biochemical; conditions: at concentrations in excess of those required to inhibit the β-lactamase of E. coli
monoamine oxidase = test: Enzyme inhibition (selectivity); format: biochemical; conditions: at concentrations in excess of those required to inhibit the β-lactamase of E. coli
chymotrypsin = test: Enzyme inhibition (selectivity); format: biochemical; conditions: at concentrations in excess of those required to inhibit the β-lactamase of E. coli
carbonic anhydrase = test: Enzyme inhibition (selectivity); format: biochemical; conditions: at concentrations in excess of those required to inhibit the β-lactamase of E. coli
tyrpsin = test: Enzyme inhibition (selectivity); format: biochemical; conditions: at concentrations in excess of those required to inhibit the β-lactamase of E. coli
[1] = test system: β-lactamases produced by Escherichia coli, Klebsiella aerogenes and Staphylococcus aureus; test: Inhibition of β-lactamases of various species; format: biochemical
dopa decarboxylase = test: Enzyme inhibition (selectivity); format: biochemical; conditions: at concentrations in excess of those required to inhibit the β-lactamase of E. coli

CC(=O)N/C=C/SC1=C(C(=O)O)N2C(=O)C(C(C)OS(=O)(=O)O)C2C1 (stereo not shown) [MM 13902]
stability (Stability): tends to be unstable | activity (Klebsiella aerogenes; partially purified salt, after XAD 4): 37,000 units/mg

CC(=O)N/C=C/SC1=C(C(=O)O)N2C(=O)C(C(C)OS(=O)(=O)O)C2C1 (stereo not shown) [di-sodium salt of MM 13902]
activity (Klebsiella aerogenes; yellowish powder after cellulose chromatography): 73,000 units/mg

CC(=O)N/C=C/[S+]([O-])C1=C(C(=O)O)N2C(=O)C(C(C)OS(=O)(=O)O)C2C1 (stereo not shown) [MM 4550A]
enzyme inhibition (urease): does not inhibit | enzyme inhibition (monoamine oxidase): does not inhibit | enzyme inhibition (chymotrypsin): does not inhibit | enzyme inhibition (carbonic anhydrase): does not inhibit | enzyme inhibition (tyrpsin): does not inhibit | enzyme inhibitory activity against β-lactamases [1]: possesses enzyme inhibitory activity | enzyme inhibition (dopa decarboxylase): does not inhibit
